Measurements published in patent US20250115577A1, “BCL-2 Inhibitors” (Eil Therapeutics, Inc., priority 2021, published 2025).

Columns and labels:
BCL-xL = BCL-xL (Homo sapiens (Human), UniProt Q07817); experiment: BCL-xL TR-FRET Assay (primary PPI inhibition); type: binding; details: 60 min incubation, read-out: BCLxL IC50
Method: Example B. BCL-xL TR-FRET Assay (BPS Bioscience, #50223)
The following assay concentrations and times were used: 10.5 ng of BCL-xL, 5 μL of 1:120 anti-His Tb-labeled donor, 5 μL of 1:120 Dye-labeled acceptor, 5 μL of 1:96 BCL-xL Peptide Ligand, 2 μL of 200× test compound, with 60 min incubation time (final concentration of DMSO 0.5%). The results of the assay were read using a plate reader with the following parameters: TR FRET, 340ex/620 and 665em; 60 usec Delay; and 500 usec integration.
(§1) Instrumentation: CLARIOstar Plus (BMG LABTECH); Biomek FX for liquid handling (Beckman Coulter).

BCL-2 = BCL-2 (Homo sapiens (Human), UniProt P10415); experiment: BCL-2 TR-FRET Assay (primary PPI inhibition); type: binding; details: 60 min incubation, read-out: BCL2 IC50
Method: Example A. BCL-2 TR-FRET Assay (BPS Bioscience, #50222)
The following assay concentrations and times were used: 3 ng of BCL-2, 5 μL of 1:100 anti-His Tb-labeled donor, 5 μL of 1:100 Dye-labeled acceptor, 5 µL of 1:40 BCL-2 Peptide Ligand, and 2 μL of 200× test compound, with 60 min incubation time (final concentration of DMSO 0.5%). The results of the assay were read using a plate reader with the following parameters: TR FRET, 340ex/620 and 665em; 60 usec Delay; and 500 usec integration.
as §1

[1] = Cell viability assay (CellTiter-Glo), HEK293; type: cell-based; details: human, HEK293 cells, 3 days of incubation
Method: (§2) Example D. Cell Viability Assays (Cell lines HEK293, RS4-11, MOLT-4)
(§3) Cells were seeded at a density of 4000 cells per well in the 384-well clear bottom plate (Greiner Cat #781090) to the 45 μL total volume of either DMEM (PanEco, Cat #C420, for HEK293) or RPMI (PanEco, Cat #C330, for other cell lines) with 10% FBS(HyClone Cat #SV30160.03). Prior to adding compounds, the HEK293 cells were allowed to adhere overnight at 37° C. and 5% CO2. The 500× compounds solutions in DMSO(Sigma Cat #D2650) were dispersed into a 384-well compound plate (Diamond Well Plate, Axigen, Cat #P-384-120 SQ-C—S) including only DMSO control. The 1 μL aliquots of the 500× compounds from the compound plate were added to 49 μL of culture medium in the Dilution plate (Diamond Well Plate, Axigen, Cat #P-384-120 SQ-C—S), mixed and then the 5 μL aliquts of the 10× compound solutions were transferred to cells followed by centrifugation at 100 g for 1 min. Final DMSO concentration was 0.2%. After 3 days of incubation the 10 μL aliquots of CellTiter-Glo (Promega, CAT #G7572) were added to the cells, plate was centrifuged at 100 g for 1 min and the luminescence was measured on the CLARIOstar Plus (BMG LABTECH) instrument.
as §1

[2] = system: caspase-3 and -7 activities in RS4-11 cells; experiment: Caspase-3/7 activation (Caspase-Glo 3/7) in RS4-11 cells; type: cell-based; details: Homo sapiens, 3.5 h, read-out: Cas-3/7 EC50
Method: Example E. Caspase-3/7 Activation
Assay Principle: The Caspase-Glo 3/7 Assay is homogeneous, luminescent assay that measures caspase-3 and -7 activities. The assay provides a luminogenic caspase-3/7 substrate, which contains the tetrapeptide sequence DEVD, in a reagent optimized for caspase activity.
Assay Procedure: Incubate RS4-11 (ATCC, CRL-1873) cells in the 384-well white plate (Corning, #3570) with varying concentrations of test compounds for 3.5 h in a humidified incubator at 37° C. and 5% CO2 […]. Add 15 μL of the Caspase-Glo (Promega, #8212) reagent to each well and to incubate the plate for 30 min at rt. Read on the CLARIOstar Plus (BMG LABTECH) instrument.
as §1

MOLT-4 cells = experiment: Cell viability assay (CellTiter-Glo), MOLT-4; type: cell-based; details: Homo sapiens, 72 h, 3 days of incubation
Method: as §2, §3, §1

RS4-11 cells = experiment: Cell viability assay (CellTiter-Glo), RS4-11; type: cell-based; details: Homo sapiens, RS4-11, 72 h, 3 days of incubation
Method: as §2, §3, §1

Chain of BCL-xL (Q07817 whole entry): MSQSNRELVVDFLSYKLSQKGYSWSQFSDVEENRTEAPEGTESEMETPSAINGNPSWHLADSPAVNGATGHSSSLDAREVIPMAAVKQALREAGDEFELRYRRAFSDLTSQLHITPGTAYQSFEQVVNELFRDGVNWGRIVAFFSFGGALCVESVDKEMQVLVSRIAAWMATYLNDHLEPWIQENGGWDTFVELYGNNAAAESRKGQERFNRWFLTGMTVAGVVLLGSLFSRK
Chain of BCL-2 (P10415 whole entry): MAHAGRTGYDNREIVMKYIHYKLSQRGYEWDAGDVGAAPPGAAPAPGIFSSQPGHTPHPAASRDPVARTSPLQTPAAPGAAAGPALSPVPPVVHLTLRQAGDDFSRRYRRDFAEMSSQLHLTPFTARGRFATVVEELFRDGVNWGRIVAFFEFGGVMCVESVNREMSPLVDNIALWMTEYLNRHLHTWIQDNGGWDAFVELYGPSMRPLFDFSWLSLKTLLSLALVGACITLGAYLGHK

| Compound | IC50 (BCL-xL) [nM] | IC50 (BCL-2) [nM] | CC50 at 3 days [1] [nM] | EC50 [2] [nM] | CC50 (MOLT-4 cells) [nM] | CC50 (RS4-11 cells) [nM] |
| --- | --- | --- | --- | --- | --- | --- |
| COc1cc(-c2cc(C(=O)N(Cc3ccccc3C#N)c3ccc(Cl)cc3)c(C)n2C)c(C(=O)N2Cc3ccccc3C[C@H]2CN2CCOCC2)cc1C#N [Compound 59, N-(4-chlorophenyl)-5-[4-cyano-5-methoxy-2-[(3S)-3-(morpholinomethyl)-3,4-dihydro-1H-isoquinoline-2-carbonyl]phenyl]-N-[(2-cyanophenyl)methyl]-1,2-dimethyl-pyrrole-3-carboxamide] | 2000 to 5000 | > 50 | – | – | – | – |
| Cc1c(C(=O)N(Cc2ccccc2C#N)c2ccc(O)cc2)cc(-c2cc(F)c(F)cc2C(=O)N2Cc3ccccc3C[C@H]2CN2CCOCC2)n1C [Compound 53, N-[(2-cyanophenyl)methyl]-5-[4,5-difluoro-2-[(3S)-3-(morpholinomethyl)-3,4-dihydro-1H-isoquinoline-2-carbonyl]phenyl]-N-(4-hydroxyphenyl)-1,2-dimethyl-pyrrole-3-carboxamide] | 2000 to 5000 | 10 to 50 | > 25000 | 200 to 500 | 5000 to 10000 | 100 to 200 |
| COc1cc(-c2cc(C(=O)N(Cc3cccc(OC)c3C)c3ccc(Cl)cc3)c(C)n2C)c(C(=O)N2Cc3ccccc3C[C@H]2CN2CCOCC2)cc1C#N [Compound 60, N-(4-chlorophenyl)-5-[4-cyano-5-methoxy-2-[(3S)-3-(morpholinomethyl)-3,4-dihydro-1H-isoquinoline-2-carbonyl]phenyl]-N-[(3-methoxy-2-methyl-phenyl)methyl]-1,2-dimethyl-pyrrole-3-carboxamide] | 2000 to 5000 | > 50 | – | – | – | – |
| COc1cccc(CN(C(=O)c2cc(-c3c(C)cc(Cl)cc3C(=O)N3Cc4ccccc4C[C@H]3CN3CCOCC3)n(C)c2C)c2ccc(O)cc2)c1C [Compound 50, 5-[4-chloro-2-methyl-6-[(3S)-3-(morpholinomethyl)-3,4-dihydro-1H-isoquinoline-2-carbonyl]phenyl]-N-(4-hydroxyphenyl)-N-[(3-methoxy-2-methyl-phenyl)methyl]-1,2-dimethyl-pyrrole-3-carboxamide] | 2000 to 5000 | > 50 | – | – | – | – |
| COc1cccc(CN(C(=O)c2cc(-c3cc(C(F)F)c(Cl)cc3C(=O)N3Cc4ccccc4C[C@H]3CN3CCOCC3)n(C)c2C)c2ccc(C#N)cc2)c1C [Compound 24, 5-[4-chloro-5-(difluoromethyl)-2-[(3S)-3-(morpholinomethyl)-3,4-dihydro-1H-isoquinoline-2-carbonyl]phenyl]-N-(4-cyanophenyl)-N-[(3-methoxy-2-methyl-phenyl)methyl]-1,2-dimethyl-pyrrole-3-carboxamide] | 2000 to 5000 | > 50 | > 25000 | > 500 | > 10000 | > 200 |
| COc1cccc(CN(C(=O)c2cc(-c3cc(C(F)F)c(Cl)cc3C(=O)N3Cc4ccccc4C[C@H]3CN3CCOCC3)n(C)c2C)c2ccc(Cl)cc2)c1C [Compound 39, 5-[4-chloro-5-(difluoromethyl)-2-[(3S)-3-(morpholinomethyl)-3,4-dihydro-1H-isoquinoline-2-carbonyl]phenyl]-N-(4-chlorophenyl)-N-[(3-methoxy-2-methyl-phenyl)methyl]-1,2-dimethyl-pyrrole-3-carboxamide] | 2000 to 5000 | > 50 | > 25000 | > 500 | ≤ 5000 | > 200 |
| COc1cccc(CN(C(=O)c2cc(-c3cc(F)c(OC(F)F)cc3C(=O)N3Cc4ccccc4C[C@H]3CN3CCOCC3)n(C)c2C)c2ccc(Cl)cc2)c1C [Compound 26, N-(4-chlorophenyl)-5-[4-(difluoromethoxy)-5-fluoro-2-[(3S)-3-(morpholinomethyl)-3,4-dihydro-1H-isoquinoline-2-carbonyl]phenyl]-N-[(3-methoxy-2-methyl-phenyl)methyl]-1,2-dimethyl-pyrrole-3-carboxamide] | 2000 to 5000 | > 50 | > 25000 | > 500 | ≤ 5000 | > 200 |
| COc1cccc(CN(C(=O)c2cc(-c3cc([N+](=O)[O-])ccc3C(=O)N3Cc4ccccc4C[C@H]3CN3CCOCC3)n(C)c2C)c2ccc3cn[nH]c3c2)c1C [Compound 67, N-(1H-indazol-6-yl)-N-[(3-methoxy-2-methyl-phenyl)methyl]-1,2-dimethyl-5-[2-[(3S)-3-(morpholinomethyl)-3,4-dihydro-1H-isoquinoline-2-carbonyl]-5-nitro-phenyl]pyrrole-3-carboxamide] | > 5000 | > 50 | – | – | – | – |
| Cc1c(C(=O)N(Cc2ccccc2C#N)c2ccc3cn[nH]c3c2)cc(-c2cc([N+](=O)[O-])ccc2C(=O)N2Cc3ccccc3C[C@H]2CN2CCOCC2)n1C [Compound 66, N-[(2-cyanophenyl)methyl]-N-(1H-indazol-6-yl)-1,2-dimethyl-5-[2-[(3S)-3-(morpholinomethyl)-3,4-dihydro-1H-isoquinoline-2-carbonyl]-5-nitro-phenyl]pyrrole-3-carboxamide] | > 5000 | > 50 | – | – | – | – |
| COc1ccccc1CN(C(=O)c1cc(-c2cc(OC)c(C(N)=O)cc2C(=O)N2Cc3ccccc3C[C@H]2CN2CCOCC2)n(C)c1C)c1ccc(Cl)cc1 [Compound 63, 5-[4-carbamoyl-5-methoxy-2-[(3S)-3-(morpholinomethyl)-3,4-dihydro-1H-isoquinoline-2-carbonyl]phenyl]-N-(4-chlorophenyl)-N-[(2-methoxyphenyl)methyl]-1,2-dimethyl-pyrrole-3-carboxamide] | – | 10 to 50 | 10000 to 25000 | > 500 | ≤ 5000 | 100 to 200 |
| COc1cccc(CN(C(=O)c2cc(-c3cc(F)c(OC(F)F)cc3C(=O)N3Cc4ccccc4C[C@H]3CN3CCOCC3)n(C)c2C)c2ccc(C#N)cc2)c1C [Compound 44, N-(4-cyanophenyl)-5-[4-(difluoromethoxy)-5-fluoro-2-[(3S)-3-(morpholinomethyl)-3,4-dihydro-1H-isoquinoline-2-carbonyl]phenyl]-N-[(3-methoxy-2-methyl-phenyl)methyl]-1,2-dimethyl-pyrrole-3-carboxamide] | 2000 to 5000 | > 50 | – | – | – | – |
| COc1cccc(CN(C(=O)c2cc(-c3cc(Cl)c(OC(F)F)cc3C(=O)N3Cc4ccccc4C[C@H]3CN3CCOCC3)n(C)c2C)c2ccc(C#N)cc2)c1C [Compound 40, 5-[5-chloro-4-(difluoromethoxy)-2-[(3S)-3-(morpholinomethyl)-3,4-dihydro-1H-isoquinoline-2-carbonyl]phenyl]-N-(4-cyanophenyl)-N-[(3-methoxy-2-methyl-phenyl)methyl]-1,2-dimethyl-pyrrole-3-carboxamide] | 2000 to 5000 | > 50 | – | – | – | – |
| COc1cccc(CN(C(=O)c2cc(-c3cc(Cl)ccc3C(=O)N3Cc4ccccc4C[C@H]3CN3CCOCC3)n(C)c2C)c2ccc(C#N)cc2)c1C [Compound 33, 5-[5-chloro-2-[(3S)-3-(morpholinomethyl)-3,4-dihydro-1H-isoquinoline-2-carbonyl]phenyl]-N-(4-cyanophenyl)-N-[(3-methoxy-2-methyl-phenyl)methyl]-1,2-dimethyl-pyrrole-3-carboxamide] | 2000 to 5000 | > 50 | – | – | – | – |
